Measured values from patent US12435092B2, “Substituted imidazo[1,2-A]quinazolines as inhibitors of PARG” (858 Therapeutics, Inc., priority 2022, dated 2025).

The compounds below were run against T1, cellular PARG (Homo sapiens, UniProt Q86W56) (assay: Nuclear PAR accumulation assay (immunofluorescence high-content imaging)). Details: HeLa cells, 1 hour compound treatment then MMS 50 μg/mL for an additional hour.
T1 construct: endogenous in cells; host or cells: HeLa
Assay type: cell-based
How it was run: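 HeLa cells pretreated 1 h at 37 °C with compound, then 1 h with 50 μg/mL MMS (final), methanol-fixed and immunostained for PAR with DAPI nuclear counterstain. Nuclear PAR intensity and percent PAR-positive cells quantified by high-content imaging (≥1,000 cells/well). IC50 by four-parameter logistic fit, normalized to 0.1% DMSO and reference-compound controls.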

T1 sequence (Q86W56 whole entry): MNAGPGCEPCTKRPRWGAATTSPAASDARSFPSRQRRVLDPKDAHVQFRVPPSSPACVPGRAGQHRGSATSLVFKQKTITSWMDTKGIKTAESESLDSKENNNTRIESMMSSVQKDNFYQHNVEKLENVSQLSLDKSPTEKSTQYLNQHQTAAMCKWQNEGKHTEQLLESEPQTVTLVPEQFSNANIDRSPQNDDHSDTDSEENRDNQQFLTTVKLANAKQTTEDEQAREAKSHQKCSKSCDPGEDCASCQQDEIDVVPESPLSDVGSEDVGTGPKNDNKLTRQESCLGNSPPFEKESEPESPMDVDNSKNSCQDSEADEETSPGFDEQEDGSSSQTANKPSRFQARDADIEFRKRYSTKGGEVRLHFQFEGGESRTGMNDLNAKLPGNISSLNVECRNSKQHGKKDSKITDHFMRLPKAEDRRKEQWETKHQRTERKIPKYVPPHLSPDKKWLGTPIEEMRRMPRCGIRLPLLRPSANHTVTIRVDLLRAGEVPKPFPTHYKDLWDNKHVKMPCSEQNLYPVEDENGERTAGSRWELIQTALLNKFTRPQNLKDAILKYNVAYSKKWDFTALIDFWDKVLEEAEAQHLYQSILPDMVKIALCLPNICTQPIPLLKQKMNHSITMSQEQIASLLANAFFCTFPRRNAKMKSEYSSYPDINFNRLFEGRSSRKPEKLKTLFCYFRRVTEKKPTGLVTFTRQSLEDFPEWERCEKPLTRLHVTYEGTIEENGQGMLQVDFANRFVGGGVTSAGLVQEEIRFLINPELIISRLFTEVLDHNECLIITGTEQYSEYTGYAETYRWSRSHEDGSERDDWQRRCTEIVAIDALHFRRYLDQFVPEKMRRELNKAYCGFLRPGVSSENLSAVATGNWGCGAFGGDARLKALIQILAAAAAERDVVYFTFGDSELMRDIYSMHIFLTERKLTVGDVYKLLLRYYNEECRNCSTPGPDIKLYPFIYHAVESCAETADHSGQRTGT

Structure (SMILES) | IC50
C[C@@H]1CN=C2N(Cc3cnn4c3OCCC4)C(=O)c3cc(S(=O)(=O)NC4(C)CC4)ccc3N21 [Example 119, (R)-4-((6,7-dihydro-5H-pyrazolo[5,1-b][1,3]oxazin-3-yl)methyl)-1-methyl-N-(1-methylcyclopropyl)-5-oxo-1,2,4,5-tetrahydroimidazo[1,2-a]quinazoline-7-sulfonamide] | ≤ 100 nM
Cc1nc(C)c(CN2C(=O)c3cc(S(=O)(=O)NC4(C)CC4)ccc3N3C2=NC[C@H]3C)[nH]1 [Example 120, (R)-4-((2,4-dimethyl-1H-imidazol-5-yl)methyl)-1-methyl-N-(1-methylcyclopropyl)-5-oxo-1,2,4,5-tetrahydroimidazo[1,2-a]quinazoline-7-sulfonamide] | 1000 to 10000 nM
Cc1nnsc1CN1C(=O)c2cc(S(=O)(=O)NC3(C)CC3)ccc2N2C1=NC[C@H]2C [Example 121, (R)-1-methyl-4-((4-methyl-1,2,3-thiadiazol-5-yl)methyl)-N-(1-methylcyclopropyl)-5-oxo-1,2,4,5-tetrahydroimidazo[1,2-a]quinazoline-7-sulfonamide] | ≤ 100 nM
[2H]C([2H])(c1cnn2c1CCC2)N1C(=O)c2cc(S(=O)(=O)NC3(C)CC3)ccc2N2C1=NC[C@H]2C [Example 122, (R)-4-(dideutero(5,6-dihydro-4H-pyrrolo[1,2-b]pyrazol-3-yl)methyl)-1-methyl-N-(1-methylcyclopropyl)-5-oxo-1,2,4,5-tetrahydroimidazo[1,2-a]quinazoline-7-sulfonamide] | ≤ 100 nM
C[C@@H]1CN=C2N(Cc3cnn(C)c3)C(=O)c3cc(S(=O)(=O)NC4(C)CC4)cc(Cl)c3N21 [Example 124, (R)-9-chloro-1-methyl-4-((1-methyl-1H-pyrazol-4-yl)methyl)-N-(1-methylcyclopropyl)-5-oxo-1,2,4,5-tetrahydroimidazo[1,2-a]quinazoline-7-sulfonamide] | ≤ 100 nM
COCC1(C)CN2C(=N1)N(Cc1cnn(C)c1)C(=O)c1cc(S(=O)(=O)NC3(C)CC3)ccc12 (centres unmarked) [Example 127, 2-(methoxymethyl)-2-methyl-4-((1-methyl-1H-pyrazol-4-yl)methyl)-N-(1-methylcyclopropyl)-5-oxo-1,2,4,5-tetrahydroimidazo[1,2-a]quinazoline-7-sulfonamide] | 100 to 1000 nM
[2H]C([2H])(c1cnn(C)c1)N1C(=O)c2cc(S(=O)(=O)NC3(C)CC3)cc(Cl)c2N2C1=NC[C@H]2C [Example 128, (R)-9-chloro-4-(dideutero(1-methyl-1H-pyrazol-4-yl)methyl)-1-methyl-N-(1-methylcyclopropyl)-5-oxo-1,2,4,5-tetrahydroimidazo[1,2-a]quinazoline-7-sulfonamide] | ≤ 100 nM
C[C@@H]1CN=C2N(Cc3cnn(C)c3)C(=O)c3cc(S(=O)(=O)NC4(C)CC4)cc(Br)c3N21 [Example 129, (R)-9-bromo-1-methyl-4-((1-methyl-1H-pyrazol-4-yl)methyl)-N-(1-methylcyclopropyl)-5-oxo-1,2,4,5-tetrahydroimidazo[1,2-a]quinazoline-7-sulfonamide] | ≤ 100 nM
C[C@@H]1CN=C2N(Cc3cnn(C)c3)C(=O)c3cc(S(=O)(=O)NC4(C)CC4)cc(N4CCN(C(=O)N(C)C)CC4)c3N21 [Example 130, (R)—N,N-dimethyl-4-(1-methyl-4-((1-methyl-1H-pyrazol-4-yl)methyl)-7-(N-(1-methylcyclopropyl)sulfamoyl)-5-oxo-1,2,4,5-tetrahydroimidazo[1,2-a]quinazolin-9-yl)piperazine-1-carboxamide] | ≤ 100 nM
C[C@@H]1CN=C2N(Cc3cnn(C)c3)C(=O)c3cc(S(=O)(=O)NC4(C)CC4)cc(C4=CCN(C)CC4)c3N21 [Example 131, (R)-1-methyl-9-(1-methyl-1,2,3,6-tetrahydropyridin-4-yl)-4-((1-methyl-1H-pyrazol-4-yl)methyl)-N-(1-methylcyclopropyl)-5-oxo-1,2,4,5-tetrahydroimidazo[1,2-a]quinazoline-7-sulfonamide] | ≤ 100 nM
[2H]C([2H])(c1cnn(C)c1)N1C(=O)c2cc(S(=O)(=O)NC3(C)CC3)cc(C)c2N2C1=NC[C@H]2C [Example 132, (R)-1,9-dimethyl-4-((1-methyl-1H-pyrazol-4-yl)methyl-d2)-N-(1-methylcyclopropyl)-5-oxo-1,2,4,5-tetrahydroimidazo[1,2-a]quinazoline-7-sulfonamide] | ≤ 100 nM
C[C@@H]1CN=C2N(Cc3cnn(C)c3)C(=O)c3cc(S(=O)(=O)NC4(C)CC4)cc(C4=CCOCC4)c3N21 [Example 133, (R)-9-(3,6-dihydro-2H-pyran-4-yl)-1-methyl-4-((1-methyl-1H-pyrazol-4-yl)methyl)-N-(1-methylcyclopropyl)-5-oxo-1,2,4,5-tetrahydroimidazo[1,2-a]quinazoline-7-sulfonamide] | ≤ 100 nM
[2H]C([2H])(c1cnn(C)c1)N1C(=O)c2cc(S(=O)(=O)NC3(C)CC3)cc(C(F)(F)F)c2N2C1=NC[C@H]2C [Example 134, (R)-1-methyl-4-((1-methyl-1H-pyrazol-4-yl)methyl-d2)-N-(1-methylcyclopropyl)-5-oxo-9-(trifluoromethyl)-1,2,4,5-tetrahydroimidazo[1,2-a]quinazoline-7-sulfonamide] | ≤ 100 nM
C[C@@H]1CN=C2N(Cc3cnn(C)c3)C(=O)c3cc(S(=O)(=O)NC4(C)CC4)cc(-c4ccc(F)nc4)c3N21 [Example 135, (R)-9-(6-fluoropyridin-3-yl)-1-methyl-4-((1-methyl-1H-pyrazol-4-yl)methyl)-N-(1-methylcyclopropyl)-5-oxo-1,2,4,5-tetrahydroimidazo[1,2-a]quinazoline-7-sulfonamide] | ≤ 100 nM
C[C@@H]1CN=C2N(Cc3cnn(C)c3)C(=O)c3cc(S(=O)(=O)NC4(C)CC4)cc(-c4ccc(F)cc4)c3N21 [Example 136, (R)-9-(4-fluorophenyl)-1-methyl-4-((1-methyl-1H-pyrazol-4-yl)methyl)-N-(1-methylcyclopropyl)-5-oxo-1,2,4,5-tetrahydroimidazo[1,2-a]quinazoline-7-sulfonamide] | ≤ 100 nM
[2H]C([2H])(c1cnn(C)c1)N1C(=O)c2cc(S(=O)(=O)NC3(C)CC3)cc(Br)c2N2C1=NC[C@H]2C [Example 137, (R)-9-bromo-1-methyl-4-((1-methyl-1H-pyrazol-4-yl)methyl-d2)-N-(1-methylcyclopropyl)-5-oxo-1,2,4,5-tetrahydroimidazo[1,2-a]quinazoline-7-sulfonamide] | ≤ 100 nM
C[C@@H]1CN=C2N(Cc3cnn(C)c3)C(=O)c3cc(S(=O)(=O)NC4(C)CC4)cc(C#N)c3N21 [Example 138, (R)-9-cyano-1-methyl-4-((1-methyl-1H-pyrazol-4-yl)methyl)-N-(1-methylcyclopropyl)-5-oxo-1,2,4,5-tetrahydroimidazo[1,2-a]quinazoline-7-sulfonamide] | 100 to 1000 nM
